Patent publication US9815863B2, “Hydrogen bond forming fluoro ketolides for treating diseases” (priority 2010, dated 2017)
Values after ≈ are worked out from the molar mass of the structure shown.

Experiments:
[1] = test system: bacterial protein synthesis (E. coli S30 extract); test: E. coli cell-free transcription-translation (TnT) S30 system, firefly luciferase synthesis; details: read-out: IC50 of inhibition of firefly luciferase synthesis, ribosomes 600 nM
[2] = test system: eukaryotic ribosome (rabbit reticulocyte lysate); test: Rabbit reticulocyte cell-free translation system, luciferase synthesis; type: biochemical; details: concentrations up to 50 μM
Protocol: The rabbit reticulocyte cell-free translation system (Promega, Cat. No. L4540) was used to assay the effect of the drugs on activity of the eukaryotic ribosome. […] Polyadenylated luciferase mRNA (Promega, Cat. No. L4561) was denatured before use by incubating the RNA at 65° C. for 3 min and then placed on ice. Translation mix (2 μL) was mixed with the rabbit reticulocyte lysate to start the reaction. The translation mix contained 0.3 μL of denatured luciferase mRNA (0.3 μg), 0.2 μL of 1 mM amino acid mixture, 0.2 μL of ribonuclease inhibitor (8U, Roche, Cat. No. 03 335 399001), 0.4 μL of 2.5 M potassium chloride, and 0.9 μL of water. Reactions were incubated at 30° C. for 30 min and then placed on ice.

[3] = test system: S. aureus ribosomes (23S rRNA); test: RNA footprinting (ribosome chemical probing), wild-type S. aureus ribosomes; type: binding; details: 100 μM antibiotic
Protocol: Ribosome chemical probing. rRNA probing was done following standard protocols (Merryman, C., and H. F. Noller. 1998. Footprinting and modification-interference analysis of binding sites on RNA, p. 237-253. In C. W. J. Smith (ed.), RNA:Protein Interactions, A Practical Approach. Oxford University Press, Oxford), with minor modifications. Briefly, 200 nM ribosomes were incubated with 100 μM antibiotic in 50 μL of buffer B (80 mM HEPES-KOH [pH 7.8], 20 mM MgCl2, 100 mM NH4Cl, 1.5 mM dithiothreitol) for 10 min at 37° C., followed by 10 min at 20° C. Modifying reagents (dimethyl sulfate [DMS], kethoxal, or 1-cyclohexyl-3-(2-morpholinoethyl)carbodiimide metho p-toluene sulfonate [CMCT]) were added and the modification reaction was carried out for 10 min at 37° C. After quenching the reaction and ethanol precipitation, rRNA was extracted and the distribution of modified nucleotides was assessed by primer extension.
Interactions of CEM-101 with wild-type E. coli and S. aureus ribosomes in solution. […] 1987. Chloramphenicol, erythromycin, carbomycin and vernamycin B protect overlapping sites in the peptidyl transferase region of 23S ribosomal RNA. Biochimie 69:879-884). Also included in this study was a C3-cladinose cousin of CEM-101, CEM-103, which lacks the C2-linked fluorine atom.

S. aureus 70S ribosomes = test: Saturation (direct) binding of radiolabeled drug to S. aureus wild-type ribosomes, spin-column
Protocol: Ribosomes were prepared from E. coli, strain MRE 600, S. aureus strain ATCC 29212, or S. aureus strain N315 by standard protocols (Spedding™, G. 1990. Isolation and analysis of ribosomes from prokaryotes, eukaryotes, and organelles, p. 1-29. In G. Spedding (ed.), Ribosomes and protein synthesis, a practical approach. Oxford University Press, Oxford, United Kingdom; Adams, P. D., P. V. Afonine, G. Bunkoczi, V. B. Chen, I. W. Davis, N. Echols, J. J. Headd, L. W. Hung, G. J. Kapral, R. W. Grosse-Kunstleve, A. J. McCoy, N. W. Moriarty, R. Oeffner, R. J. Read, D. C. Richardson, J. S. Richardson, T. C. Terwilliger, and P. H. Zwart. 2010. PHENIX: a comprehensive Python-based system for macromolecular structure solution. Acta Crystallogr. D. Biol. Crystallogr. 66:213-221).
Competition binding studies. […]
Direct antibiotic binding experiments were done by incubating ribosomes at a 100 nM concentration with varying concentrations of radiolabeled drug in a total volume of 160 μL in buffer A (20 mM Tris-HCl [pH 7.5], 10 mM MgCl2, 150 mM NH4Cl, 6 mM 2-mercaptoethanol) at 37° C. for 15 min, then at 20° C. for 10 min. […] Radioactivity was measured in a scintillation counter and used to calculate the amount of the radiolabeled drug bound to ribosomes.

[4] = test system: Streptococcus pneumoniae Pen^R, Tel^1/^R, Mac^R; test: MIC against streptococci clinical isolates (Table 3); type: cell-based; details: Streptococcus pneumoniae, S. pneumoniae Pen^R, 12 strains, constitutive ermB
S. aureus ribosome = test: Competition binding with [14C]erythromycin, S. aureus ribosome
Protocol: Competition binding studies. Binding of erythromycin to E. coli and S. aureus ribosomes and competition experiments were done by size-exclusion chromatography using Bio-Gel P30 spin columns as described in Xiong, L., Y. Korkhin, and A. S. Mankin. 2005. Binding site of the bridged macrolides in the Escherichia coli ribosome. Antimicrob. Agents Chemother. 49:281-288.
For competition binding experiments, ribosomes (100 nM) were preincubated with 100 nM [^14C]erythromycin (48.8 mCi/mmol; PerkinElmer) in 160 μL of buffer A at 37° C. for 15 min, then at 20° C. for 10 min. Competing antibiotics were added at varying concentrations, and the binding mixture was incubated at 20° C. for 100 min. The reactions were loaded onto the spin columns and the amount of ribosome-associated radioactivity was measured as described above. Binding data were analyzed using Prism software (GraphPad). Cell free transcription-translation assays.

For `CC[C@H]1OC(=O)[C@@](C)(F)C(=O)[C@H](C)[C@@H](O[C@@H]2O[C@H](C)C[C@H](N(C)C)[C@H]2O)[C@](C)(OC)C[C@@H](C)C(=O)[C@H](C)[C@H]2N(CCCCn3cc(-c4cccc(N)c4)nn3)C(=O)O[C@]12C` [CEM-101], the IC50 [1] was 1100 nM, the “Effect on the synthesis of luciferase” value [2] was “no effect” and the “Protection of A752 from DMS modification” value ([3]; S. aureus ribosomes) was “strongly protects”. For the same compound, the “Protection of A2058 and A2059 in domain V of 23S rRNA from modification with DMS” value ([3]; S. aureus wild-type ribosomes) was “protect”, the Kd (S. aureus 70S ribosomes) was 50 ± 13 nM and the MIC50 ([4]; read-out: MIC50) was 0.5 µg/mL (≈ 0.592 µM). The MIC90 ([4]; read-out: MIC90) was 0.5 µg/mL (≈ 0.592 µM), the Kd (S. aureus ribosome; S. aureus ribosome, resulting from competition IC50) was 12 ± 1 nM and the IC50 (S. aureus ribosome; competition with 100 nM [14C]erythromycin, 100 nM S. aureus ribosomes, read-out: IC50 of displacement of erythromycin) was 117 ± 3 nM.
